These are literature values, as cited in US12410474B2, “Methods, kits, and devices for diagnosing, prognosing, and treating psychiatric disorders in a patient” (Northwestern University, priority 2014, dated 2025).

In one data set the target is T1, HTR2C (Homo sapiens, UniProt P28335).
T1 sequence (P28335 33-458): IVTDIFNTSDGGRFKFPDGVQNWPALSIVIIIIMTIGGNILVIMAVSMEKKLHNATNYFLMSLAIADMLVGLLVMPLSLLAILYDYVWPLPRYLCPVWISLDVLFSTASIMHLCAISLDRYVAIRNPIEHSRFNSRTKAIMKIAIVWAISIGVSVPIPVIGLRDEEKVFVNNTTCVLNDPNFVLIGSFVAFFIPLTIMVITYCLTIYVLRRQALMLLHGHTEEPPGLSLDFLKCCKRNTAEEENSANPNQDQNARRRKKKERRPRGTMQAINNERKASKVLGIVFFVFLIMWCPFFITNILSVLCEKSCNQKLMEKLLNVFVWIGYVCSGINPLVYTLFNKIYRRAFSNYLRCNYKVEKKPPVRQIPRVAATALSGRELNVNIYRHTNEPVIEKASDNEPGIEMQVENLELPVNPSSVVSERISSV

Data set [1] deals with HTR2C Ser23 and Cys23 isoreceptors. The settings on record: after prolonged pre-exposure to serotonin.
The next data set deals with HTR2A (Homo sapiens, UniProt P28223).
Chain of HTR2A (P28223 whole entry): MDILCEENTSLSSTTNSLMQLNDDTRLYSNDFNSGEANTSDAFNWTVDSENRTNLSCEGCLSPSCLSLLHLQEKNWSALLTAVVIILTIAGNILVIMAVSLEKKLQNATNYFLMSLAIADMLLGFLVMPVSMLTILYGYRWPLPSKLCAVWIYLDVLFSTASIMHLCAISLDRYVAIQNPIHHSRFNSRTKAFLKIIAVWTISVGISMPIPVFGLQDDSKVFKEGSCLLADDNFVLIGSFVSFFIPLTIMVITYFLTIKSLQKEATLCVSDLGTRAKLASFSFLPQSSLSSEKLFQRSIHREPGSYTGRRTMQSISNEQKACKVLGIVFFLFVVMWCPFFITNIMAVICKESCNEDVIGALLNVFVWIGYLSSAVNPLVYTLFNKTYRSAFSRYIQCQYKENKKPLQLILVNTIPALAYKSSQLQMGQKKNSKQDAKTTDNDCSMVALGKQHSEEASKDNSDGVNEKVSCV

For the molecule `Cc1nc2n(c(=O)c1CCN1CCC(c3noc4cc(F)ccc34)CC1)CCCC2` [risperidone], at HTR2C, the “functional activity at HTR2C” value is listed as “potent inverse agonists”.
`Cn1ccc2cc3c(cc21)CCN3C(=O)Nc1cccnc1` [SB206553]: in data set [1], the “cell surface expression in Ser-receptors versus Cys-receptors” value is recorded as “greater cell surface expression” and the “resensitization in Ser-receptors versus Cys-receptors” value is recorded as “more rapid resensitization”.
Regarding `O=C1NCCN1CCN1CCC(c2cn(-c3ccc(F)cc3)c3ccc(Cl)cc23)CC1` [sertindole], on HTR2A, the “functional activity at HTR2A” value is “potent inverse agonists”. Moreover, at HTR2C, the “functional activity at HTR2C” value is on record as “potent inverse agonists”.
Consider `CSc1ccc2c(c1)N(CCC1CCCCN1C)c1ccccc1S2` (stereo not drawn) [thioridazine], for which the “functional activity at HTR2C” value on HTR2C is given as “neutral antagonists”.
With `CN(C)CCCN1c2ccccc2Sc2ccc(Cl)cc21` [chlorpromazine], the “functional activity at HTR2C” value on HTR2C is listed as “neutral antagonists”.
With `O=C(CCCN1CCC2(CC1)C(=O)NCN2c1ccccc1)c1ccc(F)cc1` [spiperone], the “functional activity at HTR2C” value at HTR2C was “neutral antagonists”.
For the molecule `CN1CCN(CC/C=C2/c3ccccc3Sc3ccc(S(=O)(=O)N(C)C)cc32)CC1` [thiothixene], the “functional activity at HTR2C” value at HTR2C was “neutral antagonists”.
